From patent US7071163B2, “Compounds for targeting hepatocytes in vivo” (Mirus Bio Corporation, priority 2002, dated 2006)
Peptide text beside a SMILES is read from it. * marks the point of attachment. Biotin = O=C1N[C@H]2[C@H](CS[C@H]2CCCCC(=O)*)N1; PEG4 = NCCOCCOCCOCCOCCC(=O)O

Key:
hepatocytes [1] = assay: Delivery of Cy3-streptavidin by biotinylated synthetic p17 peptide, monkey; assay type: in vivo, Cyno monkey; conditions: b107 says ratio 18:1, method b106 13:1, 10 min
Procedure: A. Delivery of streptavidin (SA) by a biotinylated p17 peptide (MC893). […] Purified peptide was mixed with 250 μg of Cy3-labled SA (Jackson ImmunoResearch Laboratories, Inc. West Grove, Pa.) at peptide to SA molar ratios of 1.2:1, 9:1, 18:1, 45: 1, and 90:1 in a solution containing 25 mM HEPES, 125 mM NaCl, pH 8. The mixtures were injected into mice via the tail vein (400 μl injection volume). For monkey injection, 3.3 mg MC893 peptide was mixed with 3 mg of Cy3-SA, a 13:1 molar ratio, and purified using a G50 column. The sample was recovered in 12 ml 25 mM HEPES, 125 mM NaCl, pH 8 and slowly injected into a Cyno monkey via a subcutaneous vein in the arm. All animals were sacrificed 10 min after injection and liver samples were excised and frozen tissue sections prepared and placed onto microscopic slides. Air dried tissue sections were fixed and counterstained with Alexa 488 phalloidin and To-Pro-3 as previously described and analyzed by confocal microcopy.

hepatocytes [2] = assay: Delivery of Cy3-streptavidin by biotinylated synthetic p17 peptide, mouse; conditions: peptide to SA molar ratio of 18:1, 10 min
Procedure: Purified peptide was mixed with 250 μg of Cy3-labled SA (Jackson ImmunoResearch Laboratories, Inc. West Grove, Pa.) at peptide to SA molar ratios of 1.2:1, 9:1, 18:1, 45: 1, and 90:1 in a solution containing 25 mM HEPES, 125 mM NaCl, pH 8. The mixtures were injected into mice via the tail vein (400 μl injection volume). […] All animals were sacrificed 10 min after injection and liver samples were excised and frozen tissue sections prepared and placed onto microscopic slides. Air dried tissue sections were fixed and counterstained with Alexa 488 phalloidin and To-Pro-3 as previously described and analyzed by confocal microcopy.
The ability of biotin-peptide conjugates to target Cy3-labeled streptavidin to hepatocytes in mice is determined by confocal fluorescent microscopy as described above.

mouse hepatocytes = assay: Delivery of biotinylated Cy3-dextran and Cy3-siRNA by MC892-SA conjugate; assay type: in vivo
Procedure: B. Delivery of biotinylated cargo by SA-p17 peptide conjugates. […] 2 mg SA was dissolved in 200 μl dH2O and added to a 200 μl 100 mM sodium phosphate/300 mM NaCl/2 mM EDTA, pH 7.2. A 10 mole equivalent of SPDP (Pierce) dissolved in DMF at 10 mg/ml was then added to the SA solution and mixed at RT for 1 h. The SPDP-modified streptavidin was then purified using a G-25 Sephadex column. It was determined that each SA molecule contained an average of 1.8 PDP groups based on a pyridine-2-thione assay. The SA-PDP conjugate was added to MC892 at a 1:18 molar ratio and incubated for 24 h at 4° C. The MC892-SA conjugates were purified on a G-25 Sephadex column. The sample was then freeze-dried and dissolved in a solution of 25 mM MES, 125 mM NaCl, pH 6.5 at 3 mg/ml.
One mg of NHS-PEG4-Biotin suspended in dry DMF at 10 mg/ml was added to 30 mg amino dextran (Molecular Probes, 70 kDa, 17.9 mole amine per polymer) that was dissolved in 0.1 M NaHCO3 at 10 mg/ml (molar ratio of 4.5 to 1). This solution was mixed overnight at room temperature, transferred into cellulose tubing (Fisher, 12–14,000 MWCO) and dialyzed once against 20 L 20 mM NH4Cl followed twice against 5 L dH20. The dialyzed sample was lyophilized. The sample was then dissolved in dH2O at 30 mg/ml. Each dextran polymer was estimated to contain an average of 0.5 biotin group. This biotinylated dextran was fluorescently labeled with Cy3-OSu (Amersham) at a weight ratio of 1:0.074. Excess free dye was removed using a Sephadex G-50 column. Labeled dextran was eluted in 25 mM NH4CO3. The sample was freeze dried and resuspended at 7.5 mg/ml in 25 mM HEPES/125 mM NaCl, pH 8.0. Biotinylated siRNA (5′-biotin-LC-siRNA, Dharmacon) was labeled with Cy3 using Cy3 LabelIT (Mirus Corp) according to manufacturer's instructions. […]
Liver samples were removed 10 min after injection, placed into OCT freezing medium and snap frozen in liquid nitrogen. […] Processed slides were mounted in Vectorshield (Vector Laboratories, Burlingame, Calif.) and analyzed using a Zeiss LSM510 confocal microscope.

monkey hepatocytes = assay: Targeting of recombinant p17 proteins to monkey hepatocytes; assay type: in vivo; conditions: 500 μg via subcutaneous vein in arm, 1 h
Procedure: 6. Targeting of recombinant p17 proteins to monkey hepatocytes. Recombinant full-length p17 proteins were prepared as previously described. Purified p17 proteins, 500 μg of p17-K211 or p17-E211 in 33 ml of PBS, were slowly injected into monkeys via subcutaneous vein in arm. Liver samples were excised 1 h after injection, submerged in O.C.T. freezing medium and snap frozen in liquid nitrogen. Frozen liver sections (5–7 μm) were prepared using a cryostat and air-dried. Immunofluorescence detection for p17 proteins was performed as described above. Liver sections from an uninjected monkey were used as a control. Images represent an area of 75 μm^2 from a flattened composite of 8 consecutive confocal optical sections (each 0.4 μm thick). P17 is seen in black, cell nuclei in gray, F-actin in gray near basolateral membranes and in near bile capillary membranes.

C[C@H](NC(=O)[C@H](CCC(=O)O)NC(=O)[C@H](CC(=O)O)NC(=O)[C@H](CCCNC(=N)N)NC(=O)[C@H](Cc1ccccc1)NC(=O)CNC(=O)[C@H](CCCCN)NC(=O)[C@@H](NC(=O)[C@H](CCC(=O)O)NC(=O)[C@H](CC(=O)O)NC(=O)[C@H](CCCNC(=N)N)NC(=O)[C@H](Cc1c[nH]c2ccccc12)NC(=O)[C@H](CCC(N)=O)NC(=O)[C@H](CCCCN)NC(=O)[C@@H](NC(=O)[C@H](CC(N)=O)NC(=O)[C@@H](NC(=O)[C@H](C)NC(=O)[C@H](CC(N)=O)NC(=O)[C@@H](NC(=O)[C@H](CO)NC(=O)[C@H](CO)NC(=O)[C@H](CCC(=O)O)NC(=O)[C@H](CC(N)=O)NC(=O)[C@H](CCCCN)NC(=O)CCOCCOCCOCCOCCNC(=O)CCOCCOCCOCCOCCNC(=O)CCCC[C@@H]1SC[C@@H]2NC(=O)N[C@@H]21)[C@@H](C)O)[C@@H](C)O)[C@@H](C)O)[C@@H](C)O)C(=O)N[C@@H](CCCCN)C(=O)N[C@@H](CCCNC(=N)N)C(=O)N[C@@H](Cc1ccccc1)C(=O)N[C@@H](CCCCN)C(=O)N[C@@H](CC(N)=O)C(=O)N[C@H](C(=O)N[C@@H](C)C(=O)NCC(=O)O)[C@@H](C)O [MC893] ({Biotin-PEG4-PEG4}-KNESSTNATNTKQWRDETKGFRDEAKRFKNTAG-OH)
targeting of Cy3-SA to hepatocytes (hepatocytes [1]): efficiently targeted Cy3-SA to hepatocytes | targeting of Cy3-SA to hepatocytes (hepatocytes [2]): efficiently targeted Cy3-SA to hepatocytes

Cys-PEG4-Lys-Asn-Glu-Ser-Ser-Thr-Asn-Ala-Thr-Asn-Thr-Lys-Gln-Trp-Arg-Asp-Glu-Thr-Lys-Gly-Phe-Arg-Asp-Glu-Ala-Lys211-Arg-Phe-Lys-Asn-Thr-Ala-Gly [MC892]
Cy3-dextran signal in hepatocytes (mouse hepatocytes; MC892-SA with biotinylated Cy3-dextran, 20 min (not shown)): internalized Cy3-dextran signals found in clusters near cell nuclei | Cy3-dextran signal in hepatocytes (mouse hepatocytes; MC892-SA with biotinylated Cy3-labeled 70 kDa dextran, 10 min after injection): high levels of Cy3-dextran signal was observed inside hepatocytes | targeting of Cy3-siRNA to liver (mouse hepatocytes; MC892-SA with biotinylated Cy3-siRNA, 10 min): successful targeting of siRNA to the liver

B1: p17-K211: bacterially expressed His-tagged full-length wild-type T7 p17 tail fiber protein (SEQ ID 4) (protein)
chain: MGSSHHHHHHSSGLVPRGSHMANVIKTVLTYQLDGSNRDFNIPFEYLARKFVVVTLIGVDRKVLTINTDYRFATRTTISLTKAWGPADGYTTIELRRVTSTTDRLVDFTDGSILRAYDLNVAQIQTMHVAEEARDLTTDTIGVNNDGHLDARGRRIVNLANAVDDRDAVPFGQLKTMNQNSWQARNEALQFRNEAETFRNQAEGFKNESSTNATNTKQWRDETKGFRDEAKRFKNTAGQYATSAGNSASAAHQSEVNAENSATASANSAHLAEQQADRAEREADKLENYNGLAGAIDKVDGTNVYWKGNIHANGRLYMTTNGFDCGQYQQFFGGVTNRYSVMEWGDENGWLMYVQRREWTTAIGGNIQLVVNGQIITQGGAMTGQLKLQNGHVLQLESASDKAHYILSKDGNRNNWYIGRGSDNNNDCTFHSYVHGTTLTLKQDYAVVNKHFHVGQAVVATDGNIQGTKWGGKWLDAYLRDSFVAKSKAWTQVWSGSAGGGVSVTVSQDLRFRNIWIKCANNSWNFFRTGPDGIYFIASDGGWLRFQIHSNGLGFKNIADSRSVPNAIMVENE
modifications: His tag; Bacteriophage T7
liver localization of p17 protein in monkey (monkey hepatocytes): efficiently targets to monkey hepatocytes
